Measurements published in ChEMBL document CHEMBL5241054, “Effective anti-aromatase therapy to battle against estrogen-mediated breast cancer: Comparative SAR/QSAR assessment on steroidal aromatase inhibitors” (Eur J Med Chem, 2020).

These molecules were tested against T1, Aromatase (Homo sapiens, UniProt P11511).
T1 sequence (P11511 whole entry): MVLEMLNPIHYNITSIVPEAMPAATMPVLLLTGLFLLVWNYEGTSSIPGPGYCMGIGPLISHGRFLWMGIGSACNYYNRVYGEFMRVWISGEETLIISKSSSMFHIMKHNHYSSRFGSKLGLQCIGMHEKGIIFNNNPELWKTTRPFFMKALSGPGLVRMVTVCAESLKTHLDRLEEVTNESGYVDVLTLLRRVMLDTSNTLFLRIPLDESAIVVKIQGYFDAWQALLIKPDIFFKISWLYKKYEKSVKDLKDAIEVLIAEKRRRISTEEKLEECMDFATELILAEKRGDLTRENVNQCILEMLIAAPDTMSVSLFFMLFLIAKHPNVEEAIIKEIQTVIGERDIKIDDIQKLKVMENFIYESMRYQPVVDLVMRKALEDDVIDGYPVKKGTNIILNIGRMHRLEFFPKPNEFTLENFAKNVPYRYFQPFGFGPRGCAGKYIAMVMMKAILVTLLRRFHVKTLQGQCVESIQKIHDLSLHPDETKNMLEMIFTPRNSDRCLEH

Row | SMILES | IC50
1 | C[C@]12CCC(=O)C=C1C[C@H](CCc1ccccc1)[C@@H]1[C@@H]2CC[C@]2(C)C(=O)CC[C@@H]12 | 40.2 nM
2 | C[C@]12CCC(=O)C=C1C[C@H](Cc1ccccc1)[C@@H]1[C@@H]2CC[C@]2(C)C(=O)CC[C@@H]12 | 44.5 nM
3 | C[C@]12CC[C@H]3[C@@H]([C@H](Cc4ccccc4)CC4=CC(=O)CC[C@@]43C)[C@@H]1CC[C@@H]2O | 39.5 nM
4 | C[C@]12CC[C@H]3[C@@H]([C@H](CCc4ccccc4)CC4=CC(=O)CC[C@@]43C)[C@@H]1CC[C@@H]2O | 36 nM
5 | C[C@H]1C[C@@H]2[C@H](CC[C@]3(C)C(=O)CC[C@@H]23)[C@@]2(C)CCCC=C12 | 37 nM
6 | CO[C@@H]1C[C@@H]2[C@H](CC[C@]3(C)C(=O)CC[C@@H]23)[C@@]2(C)CCCC=C12 | 50 nM
7 | CC[C@]12C=CC(=O)C=C1C=C[C@H]1[C@@H]3CCC(=O)[C@@]3(C)CC[C@@H]12 | 360 nM
8 | CC[C@]12C=CC(=O)C=C1CC[C@H]1[C@@H]3CCC(=O)[C@@]3(C)CC[C@@H]12 | 160 nM
9 | CC[C@H]1C[C@@H]2[C@H](CC[C@]3(C)C(=O)CC[C@@H]23)[C@@]2(C)CCCC=C12 | 110 nM
10 | C[C@]12CC[C@H]3[C@@H](C(=O)C=C4CCCC[C@@]43CO)[C@@H]1CCC2=O | 3300 nM
11 | CO[C@H]1C[C@@H]2[C@H](CC[C@]3(C)C(=O)CC[C@@H]23)[C@@]2(C)CCCC=C12 | 160 nM
12 | CC[C@]12CCC(=O)C=C1C=C[C@@H]1[C@@H]2CC[C@]2(C)C(=O)CC[C@@H]12 | 300 nM
13 | C[C@]12CCC(=O)C=C1[C@@H]1[C@H]([C@@H]3[C@@H]2CC[C@]2(C)C(=O)CC[C@@H]32)C1(F)F | 1150 nM
14 | CC1(C)C[C@@]2(C)C(=CC1=O)[C@@H](Br)C[C@@H]1[C@@H]2CC[C@]2(C)C(=O)CC[C@@H]12 | 100 nM
15 | CC1(C)C[C@@]2(C)C(=CC1=O)[C@H](Br)C[C@@H]1[C@@H]2CC[C@]2(C)C(=O)CC[C@@H]12 | 110 nM
16 | C[C@@H]1C[C@@H]2[C@H](CC[C@]3(C)C(=O)CC[C@@H]23)[C@@]2(C)CCCC=C12 | 49 nM
17 | CC(=O)O[C@@H]1C[C@@H]2[C@H](CC[C@]3(C)C(=O)CC[C@@H]23)[C@@]2(C)CCCC=C12 | 120 nM
18 | CC(=O)O[C@H]1C[C@@H]2[C@H](CC[C@]3(C)C(=O)CC[C@@H]23)[C@@]2(C)CCCC=C12 | 190 nM
19 | C[C@]12CC[C@H]3[C@@H](CCC4=CC(=O)CC[C@@]43CO)[C@@H]1CCC2=O | 13000 nM
20 | C[C@]12CCC=CC1=CC(=O)[C@@H]1[C@@H]2CC[C@]2(C)C(=O)CC[C@@H]12 | 1800 nM
21 | C[C@]12CCC(=O)c3[nH]nc(c31)C[C@@H]1[C@@H]2CC[C@]2(C)C(=O)CC[C@@H]12 | 236 nM
22 | C[C@]12CCC(=O)c3c1c(nn3C/C=C/c1ccccc1)C[C@@H]1[C@@H]2CC[C@]2(C)C(=O)CC[C@@H]12 | 899 nM
23 | C[C@]12CC[C@H]3[C@@H](C=CC4=CC(=O)C=C[C@@]43CBr)[C@@H]1CCC2=O | 2100 nM

Row | SMILES | IC50
24 | C[C@]12CCCCC1=CC(=O)[C@@H]1[C@@H]2CC[C@]2(C)C(O)CC[C@@H]12 (some centres undefined) | 1600 nM
25 | C[C@]12CC[C@H]3[C@@H](C=CC4=CC(=O)CC[C@@]43CCl)[C@@H]1CCC2=O | 760 nM
26 | C[C@]12CC[C@H]3[C@@H](C=CC4=CC(=O)C=C[C@@]43CCl)[C@@H]1CCC2=O | 1330 nM
27 | CCC[C@H]1C[C@@H]2[C@H](CC[C@]3(C)C(=O)CC[C@@H]23)[C@@]2(C)CCCC=C12 | 230 nM
28 | C[C@]12CC[C@H]3[C@@H](CCC4=CC(=O)C=C[C@@]43CCl)[C@@H]1CCC2=O | 951 nM
29 | C[C@]12CC[C@H]3[C@@H](C(=O)C=C4C=CCC[C@@]43CO)[C@@H]1CCC2=O | 60000 nM
30 | C[C@]12CC[C@H]3[C@@H](CCC4=CC(=O)C=C[C@@]43CI)[C@@H]1CCC2=O | 5500 nM
31 | CC[C@]12CCC(=O)C=C1C(=O)C[C@@H]1[C@@H]2CC[C@]2(C)C(=O)CC[C@@H]12 | 2200 nM
32 | C[C@]12CC[C@H]3[C@@H](C[C@H]4O[C@]45C(=O)CCC[C@]35C=O)C1CCC2=O (some centres undefined) | 210000 nM
33 | C[C@]12CCC3[C@@H](CC(=O)[C@]45O[C@H]4CCC[C@]35C=O)C1CCC2=O (some centres undefined) | 150000 nM
34 | C[C@]12CC[C@H]3[C@@H](CC=C4CCCC[C@@]43CO)[C@@H]1CCC2O (some centres undefined) | 61900 nM
35 | C[C@]12CCC(=O)c3nn(Cc4ccccc4)c(c31)C[C@@H]1[C@@H]2CC[C@]2(C)C(=O)CC[C@@H]12 | 245 nM
36 | C[C@]12CC[C@H]3[C@@H](C=CC4=CC(=O)C=C[C@@]43CI)[C@@H]1CCC2=O | 4700 nM
37 | C[C@H]1C[C@@H]2[C@H](CC[C@]3(C)C(O)CC[C@@H]23)[C@@]2(C)CCCC=C12 (some centres undefined) | 260 nM
38 | C[C@]12CC[C@H]3[C@@H](C(=O)C=C4C=CCC[C@@]43C=O)[C@@H]1CCC2=O | 11000 nM
39 | CC1=C[C@@]2(C)C(=CC1=O)C(Br)C[C@@H]1[C@@H]2CC[C@]2(C)C(=O)CC[C@@H]12 (some centres undefined) | 710 nM
40 | C[C@]12CCC(=O)c3c1c(nn3Cc1ccc([N+](=O)[O-])cc1)C[C@@H]1[C@@H]2CC[C@]2(C)C(=O)CC[C@@H]12 | 658 nM
41 | C[C@]12CC[C@H]3[C@@H](CCC4=CC(=O)CC[C@@]43C)[C@@H]1CC[C@@H]2OC(=O)CBr | 50000 nM
42 | C[C@]12CCCC(=O)C1CC[C@@H]1[C@@H]2CC[C@]2(C)C(=O)CC[C@@H]12 (some centres undefined) | 2400 nM
43 | C[C@]12CCC(=O)c3nn(C/C=C/c4ccccc4)c(c31)C[C@@H]1[C@@H]2CC[C@]2(C)C(=O)CC[C@@H]12 | 951 nM
44 | C[C@]12CC[C@H]3[C@@H](C=CC4=CC(=O)CC[C@@]43CBr)[C@@H]1CCC2=O | 1400 nM
45 | C[C@]12CCCCC1=CC[C@@H]1[C@@H]2CC[C@]2(C)C(O)CC[C@@H]12 (some centres undefined) | 30000 nM
46 | CC[C@@H]1C[C@@H]2[C@H](CC[C@]3(C)C(=O)CC[C@@H]23)[C@@]2(C)CCCC=C12 | 320 nM

Row | SMILES | IC50
47 | C[C@]12CC[C@H]3[C@@H]([C@@H]4C[C@@H]4C4=CCCC[C@@]43C)[C@@H]1CC[C@@H]2O | 2700 nM
48 | C[C@]12CC[C@H]3[C@@H](CCC4=CC(=O)CC[C@@]43CBr)[C@@H]1CCC2=O | 1400 nM
49 | CCCCC[C@@H]1C[C@@H]2[C@H](CC[C@]3(C)C(=O)CC[C@@H]23)[C@@]2(C)CCCC=C12 | 12000 nM
50 | C[C@]12CC[C@H]3[C@@H](C[C@H]4O[C@]45C(=O)CCC[C@]35C)C1CCC2=O (some centres undefined) | 12500 nM
51 | C[C@]12CC[C@H]3[C@@H](CCC4=CC(=O)CC[C@@]43CI)[C@@H]1CCC2=O | 4100 nM
52 | C[C@]12CCC(=O)c3c1c(nn3Cc1ccccc1)C[C@@H]1[C@@H]2CC[C@]2(C)C(=O)CC[C@@H]12 | 342 nM
53 | C[C@@H]1C[C@@H]2[C@H](CC[C@]3(C)C(O)CC[C@@H]23)[C@@]2(C)CCCC=C12 (some centres undefined) | 3700 nM
54 | C[C@]12CCC(=O)c3nn(Cc4cccc([N+](=O)[O-])c4)c(c31)C[C@@H]1[C@@H]2CC[C@]2(C)C(=O)CC[C@@H]12 | 490 nM
55 | C[C@]12CC[C@H]3[C@@H](CCC4=CC(=O)C=C[C@@]43CBr)[C@@H]1CCC2=O | 1000 nM
56 | CC(=O)O[C@@H]1CCC[C@@]2(CO)C1=CC[C@@H]1[C@@H]2CC[C@]2(C)C(=O)CC[C@@H]12 | 11000 nM
57 | C[C@]12CC[C@H]3[C@@H](C=CC4=CC(=O)CC[C@@]43CI)[C@@H]1CCC2=O | 6100 nM
58 | CC[C@@H]1C[C@@H]2[C@H](CC[C@]3(C)C(O)CC[C@@H]23)[C@@]2(C)CCCC=C12 (some centres undefined) | 1300 nM
59 | C[C@]12CCC(=O)C=C1[C@H](OC(=O)CBr)C[C@@H]1[C@@H]2CC[C@]2(C)C(=O)CC[C@@H]12 | 45000 nM
60 | C[C@]12CC[C@@H]3C4CCCCC4=CC(=O)[C@H]3[C@@H]1CCC2=O (some centres undefined) | 28000 nM
61 | C[C@]12CC[C@H]3[C@@H](C(=O)C=C4CCCC[C@@]43C=O)[C@@H]1CCC2=O | 60000 nM
62 | C[C@]12CC[C@H]3[C@@H](C(=O)C=C4CCCC[C@@]43CO)[C@@H]1CCC2O (some centres undefined) | 43000 nM
63 | C[C@]12CCCC=C1[C@H]1C[C@H]1[C@@H]1[C@@H]2CC[C@]2(C)C(=O)CC[C@@H]12 | 150 nM
64 | C[C@]12CCC=CC1=CC(=O)[C@@H]1[C@@H]2CC[C@]2(C)C(O)CC[C@@H]12 (some centres undefined) | 42000 nM
65 | CCC[C@@H]1C[C@@H]2[C@H](CC[C@]3(C)C(=O)CC[C@@H]23)[C@@]2(C)CCCC=C12 | 440 nM
66 | CC[C@H]1C[C@@H]2[C@H](CC[C@]3(C)C(O)CC[C@@H]23)[C@@]2(C)CCCC=C12 (some centres undefined) | 130 nM
67 | CCCCCC[C@H]1C[C@@H]2[C@H](CC[C@]3(C)C(=O)CC[C@@H]23)[C@@]2(C)CCCC=C12 | 8990 nM
68 | C[C@]12CC[C@@H]3C4CCC=CC4=CC(=O)[C@H]3[C@@H]1CCC2=O (some centres undefined) | 33000 nM
69 | C[C@]12CC[C@H]3[C@@H](CC(=O)C4=CC(=O)CC[C@@]43C)[C@@H]1CC[C@@H]2OC(=O)CBr | 42000 nM
